pIC50: −log10 of the molar value. Where two headings read alike, the source gives them in different places.
How the values were obtained:
human recombinant HDAC6 = target: T1, human recombinant HDAC6 (Homo sapiens, UniProt Q9UBN7); test: HDAC6 enzyme activity inhibition (HDAC Fluorimetric Drug Discovery Kit); type: biochemical
T1 construct: purchased Calbiochem Inc. 382180
T1 sequence (Q9UBN7 1-1215): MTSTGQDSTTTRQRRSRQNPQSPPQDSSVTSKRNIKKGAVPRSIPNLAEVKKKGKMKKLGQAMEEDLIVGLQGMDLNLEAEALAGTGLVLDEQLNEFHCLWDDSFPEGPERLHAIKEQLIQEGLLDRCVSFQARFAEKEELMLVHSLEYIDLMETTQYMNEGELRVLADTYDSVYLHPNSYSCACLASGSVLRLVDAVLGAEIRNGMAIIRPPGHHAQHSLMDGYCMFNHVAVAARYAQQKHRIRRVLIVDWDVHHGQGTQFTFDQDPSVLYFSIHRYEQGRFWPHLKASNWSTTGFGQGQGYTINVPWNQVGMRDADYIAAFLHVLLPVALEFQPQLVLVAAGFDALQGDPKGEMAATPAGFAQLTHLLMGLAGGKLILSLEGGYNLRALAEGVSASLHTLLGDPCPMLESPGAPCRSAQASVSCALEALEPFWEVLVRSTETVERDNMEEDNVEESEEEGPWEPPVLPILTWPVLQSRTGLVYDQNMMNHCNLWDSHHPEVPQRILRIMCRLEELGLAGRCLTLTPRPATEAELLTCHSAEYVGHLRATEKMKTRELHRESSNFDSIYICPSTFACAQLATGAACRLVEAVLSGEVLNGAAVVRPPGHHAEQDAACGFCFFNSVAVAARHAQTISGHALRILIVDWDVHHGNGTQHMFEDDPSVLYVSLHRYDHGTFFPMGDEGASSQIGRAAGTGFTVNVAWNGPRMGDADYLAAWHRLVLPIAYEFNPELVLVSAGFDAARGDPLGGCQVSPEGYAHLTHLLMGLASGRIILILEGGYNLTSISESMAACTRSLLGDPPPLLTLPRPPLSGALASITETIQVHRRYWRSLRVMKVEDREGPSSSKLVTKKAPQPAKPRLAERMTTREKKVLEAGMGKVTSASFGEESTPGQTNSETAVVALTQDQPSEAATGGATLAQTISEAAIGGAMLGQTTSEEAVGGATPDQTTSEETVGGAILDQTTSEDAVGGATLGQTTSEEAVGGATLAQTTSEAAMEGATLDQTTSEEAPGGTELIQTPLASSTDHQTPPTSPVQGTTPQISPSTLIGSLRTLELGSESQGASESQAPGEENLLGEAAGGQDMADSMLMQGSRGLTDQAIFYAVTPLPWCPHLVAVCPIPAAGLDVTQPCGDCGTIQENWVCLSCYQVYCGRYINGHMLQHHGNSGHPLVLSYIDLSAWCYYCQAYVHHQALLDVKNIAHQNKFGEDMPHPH
Summary of the method: (§1)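 Five-fold compound dilutions incubated with […] recombinant enzyme and 10 μM fluorogenic Fluor de Lys substrate, 60 min at 30° C. Fluor de Lys Developer II then added for 30 min to generate the fluorescent read-out.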

human recombinant HDAC1 = target: T2, human recombinant HDAC1 (Homo sapiens, UniProt Q13547); test: HDAC1 enzyme activity inhibition (HDAC Fluorimetric Drug Discovery Kit); type: biochemical; conditions: read-out: HDAC1
T2 construct: purchased Enzo Life Science, Inc. BML-SE456
T2 sequence (Q13547 whole entry): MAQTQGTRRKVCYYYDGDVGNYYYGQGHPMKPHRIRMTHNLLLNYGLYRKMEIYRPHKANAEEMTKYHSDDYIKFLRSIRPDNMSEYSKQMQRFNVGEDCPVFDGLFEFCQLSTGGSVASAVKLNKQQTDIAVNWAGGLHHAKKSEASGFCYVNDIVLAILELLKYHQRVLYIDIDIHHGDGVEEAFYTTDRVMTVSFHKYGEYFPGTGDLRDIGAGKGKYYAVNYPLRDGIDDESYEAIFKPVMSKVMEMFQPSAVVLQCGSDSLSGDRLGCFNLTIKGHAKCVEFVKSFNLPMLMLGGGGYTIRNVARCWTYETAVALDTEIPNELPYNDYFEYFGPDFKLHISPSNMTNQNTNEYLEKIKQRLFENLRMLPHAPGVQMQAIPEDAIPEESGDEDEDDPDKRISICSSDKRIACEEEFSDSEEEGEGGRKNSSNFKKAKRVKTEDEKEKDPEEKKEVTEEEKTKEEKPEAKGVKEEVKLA
Summary of the method: as §1

[1] = test system: hippocampal neurons from a Sprague-Dawley (SD) rat fetus; test: Effect of HDAC6-specific inhibitor on axonal transport of mitochondria in amyloid-beta treated neurons; type: cell-based; conditions: transport velocity of mitochondria in neuronal axon after normalization; vehicle = 100%, amyloid beta treatment group = 0%; compound treatment for three hours
Procedure: On the 17th to 18th days (E17-18) of insemination, the hippocampal neurons from a Sprague-Dawley (SD) rat fetus were cultured in a culture container for imaging, which had been coated with extracellular matrix, and were treated with amyloid-beta protein fragments at a concentration of […]. In 24 hours later, the neurons were treated with the compound on the 8th day of in vitro culture. In three hours later, the resulting neurons were treated with MitoTracker Red CMXRos (Life Technologies, NY, USA) for last five minutes to stain mitochondria. An image on the axonal transport of stained neuron mitochondria was taken with a confocal microscope (Leica SP8; Leica microsystems, UK) at an interval of one second for one minute to measure a transport velocity of each mitochondria per second with an IMARIS analysis program (BITPLANE, Zurich, Switzerland).
In result, after setting a section, in which the group treated with amyloid-beta had shown a significant decrease in the transport velocity of mitochondria compared to a vehicle, it was confirmed for 1,3,4-oxadiazole triazol derivative compounds of the present invention, stereoisomers thereof or pharmaceutically acceptable salts thereof that the vehicles is represented as 100%, the amyloid beta treatment group is represented as 0%, a velocity distribution of the compound after normalization is represented as *, 0%˜50%; **, 50%˜100%; ***, >100%.

[2] = human recombinant HDAC6, IC50 calculated with GraphPad Prism
[3] = human recombinant HDAC1, IC50 calculated with GraphPad Prism
[4] = human recombinant HDAC6, same protocol as HDAC1
[5] = human recombinant HDAC1, Fluor de Lys substrate, 30° C. 60 minutes

Row | SMILES | HDAC6 selectivity (fold) (human recombinant HDAC6; HDAC1 IC50 / HDAC6 IC50) | pIC50 (human recombinant HDAC6; [2]) | pIC50 (human recombinant HDAC1; [3]) | Velocity distribution (%) [1] | HDAC6 selectivity (fold) (human recombinant HDAC6; HDAC6 over HDAC1) | pIC50 (human recombinant HDAC6; [4]) | pIC50 (human recombinant HDAC1; [5])
1 | FC(F)c1nnc(-c2ccc(Cn3cc(-c4ccc5cn[nH]c5c4)nn3)cc2)o1 [Compound 4341, 2-(4-((4-(1H-indazol-6-yl)-1H-1,2,3-triazol-1-yl)methyl)phenyl)-5-(difluoromethyl)-1,3,4-oxadiazole] | 1222 fold | 7.39 | < 4.30 | ** (**, 50%˜100%) | – | – | –
2 | CC1CCN(Cc2c[nH]c3cc(-c4cn(Cc5ccc(-c6nnc(C(F)F)o6)cc5F)nn4)ccc23)CC1 [Compound 4110, 2-(difluoromethyl)-5-(3-fluoro-4-((4-(3-((4-methylpiperidin-1-yl)methyl)-1H-indol-6-yl)-1H-1,2,3-triazol-1-yl)methyl)phenyl)-1,3,4-oxadiazole] | 3030 fold | 7.78 | < 4.30 | ** (**, 50%˜100%) | – | – | –
3 | Fc1cc(-c2nnc(C(F)F)o2)ccc1Cn1cc(-c2ccc3c(CN4CCCC4)c[nH]c3c2)nn1 [Compound 4109, 2-(difluoromethyl)-5-(3-fluoro-4-((4-(3-(pyrrolidin-1-ylmethyl)-1H-indol-6-yl)-1H-1,2,3-triazol-1-yl)methyl)phenyl)-1,3,4-oxadiazole] | 3649 fold | 7.86 | < 4.30 | *** (***, >100%) | – | – | –
4 | FC(F)c1nnc(-c2ccc(Cn3cc(-c4cccc(-n5ccnc5)c4)nn3)nc2)o1 [Compound 4075, 2-(6-((4-(3-(1H-imidazol-1-yl)phenyl)-1H-1,2,3-triazol-1-yl)methyl)pyridin-3-yl)-5-(difluoromethyl)-1,3,4-oxadiazole] | 3048 fold | 7.79 | < 4.30 | *** (***, >100%) | – | – | –
5 | CN1CCC(c2cccc(-c3cn(Cc4ccc(-c5nnc(C(F)F)o5)cn4)nn3)c2)CC1 [Compound 4010, 2-(difluoromethyl)-5-(6-((4-(3-(1-methylpiperidin-4-yl)phenyl)-1H-1,2,3-triazol-1-yl)methyl)pyridin-3-yl)-1,3,4-oxadiazole] | 2369 fold | 7.68 | < 4.30 | *** (***, >100%) | – | – | –
6 | Fc1cc(-c2nnc(C(F)F)o2)ccc1Cn1cc(-c2ccc3c(CN4CCOCC4)c[nH]c3c2)nn1 [Compound 4112] | 3125 fold | 7.80 | < 4.30 | *** (***, >100%) | – | – | –
7 | CC(C)N1CCC(c2cccc(-c3cn(Cc4ccc(-c5nnc(C(F)F)o5)cn4)nn3)c2)CC1 [Compound 4012, 2-(difluoromethyl)-5-(6-((4-(3-(1-isopropylpiperidin-4-yl)phenyl)-1H-1,2,3-triazol-1-yl)methyl)pyridin-3-yl)-1,3,4-oxadiazole] | 2358 fold | 7.67 | < 4.30 | *** (***, >100%) | – | – | –
8 | FC(F)c1nnc(-c2ccc(Cn3cc(-c4ccc5c(CN6CCCC6)c[nH]c5c4)nn3)cc2)o1 [Compound 4108, 2-(difluoromethyl)-5-(4-((4-(3-(pyrrolidin-1-ylmethyl)-1H-indol-6-yl)-1H-1,2,3-triazol-1-yl)methyl)phenyl)-1,3,4-oxadiazole] | 5882 fold | 8.07 | < 4.30 | *** (***, >100%) | – | – | –
9 | FC(F)c1nnc(-c2ccc(Cn3cc(-c4ccc5c(c4)CCN(C4COC4)C5)nn3)nc2)o1 [Compound 4055, 2-(difluoromethyl)-5-(6-((4-(2-(oxetan-3-yl)-1,2,3,4-tetrahydroisoquinolin-6-yl)-1H-1,2,3-triazol-1-yl)methyl)pyridin-3-yl)-1,3,4-oxadiazole] | 868 fold | 7.24 | < 4.30 | * (*, 0%˜50%) | – | – | –
10 | CN(C)Cc1ccc(-c2cn(Cc3ccc(-c4nnc(C(F)F)o4)cc3F)nn2)cn1 [Compound 18176, 1-(5-(1-(4-(5-(difluoromethyl)-1,3,4-oxadiazol-2-yl)-2-fluorobenzyl)-1H-1,2,3-triazol-4-yl)pyridin-2-yl)-N,N-dimethylmethanamine] | – | – | – | ** (**, 50%˜100%) | 705 fold | 7.15 | < 4.30
11 | Fc1cc(-c2nnc(C(F)F)o2)ccc1Cn1cc(-c2ccc(CN3CCCC3)cn2)nn1 [Compound 17533, 2-(difluoromethyl)-5-(3-fluoro-4-((4-(5-(pyrrolidin-1-ylmethyl)pyridin-2-yl)-1H-1,2,3-triazol-1-yl)methyl)phenyl)-1,3,4-oxadiazole] | – | – | – | * (*, 0%˜50%) | 2272 fold | 7.66 | < 4.30
12 | Cc1cc2cc(-c3cn(Cc4ccc(-c5nnc(C(F)F)o5)cn4)nn3)ccc2[nH]1 [Compound 4289, 2-(difluoromethyl)-5-(6-((4-(2-methyl-1H-indol-5-yl)-1H-1,2,3-triazol-1-yl)methyl)pyridin-3-yl)-1,3,4-oxadiazole] | 416 fold | 7.92 | < 4.30 | *** (***, >100%) | – | – | –
13 | FC(F)c1nnc(-c2ccc(Cn3cc(-c4cccc(N5CCN(C6COC6)CC5)c4)nn3)cc2)o1 [Compound 4370, 2-(difluoromethyl)-5-(4-((4-(3-(4-(oxetan-3-yl)piperazin-1-yl)phenyl)-1H-1,2,3-triazol-1-yl)methyl)phenyl)-1,3,4-oxadiazole] | 715 fold | 7.16 | < 4.30 | *** (***, >100%) | – | – | –
14 | Fc1cccc(-c2cn(Cc3ccc(-c4nnc(C(F)F)o4)cn3)nn2)c1 [Compound 3854, 2-(difluoromethyl)-5-(6-((4-(3-fluorophenyl)-1H-1,2,3-triazol-1-yl)methyl)pyridin-3-yl)-1,3,4-oxadiazole] | 1259 fold | 7.40 | < 4.30 | *** (***, >100%) | – | – | –
15 | CC(C)N1CCN(c2cccc(-c3cn(Cc4ccc(-c5nnc(C(F)F)o5)cc4F)nn3)n2)CC1 [Compound 17363, 2-(difluoromethyl)-5-(3-fluoro-4-((4-(6-(4-isopropylpiperazin-1-yl)pyridin-2-yl)-1H-1,2,3-triazol-1-yl)methyl)phenyl)-1,3,4-oxadiazole] | – | – | – | ** (**, 50%˜100%) | 2212 fold | 7.65 | < 4.30
16 | FC(F)c1nnc(-c2ccc(Cn3cc(-c4ccccn4)nn3)nc2)o1 [Compound 3881, 2-(difluoromethyl)-5-(6-((4-(pyridin-2-yl)-1H-1,2,3-triazol-1-yl)methyl)pyridin-3-yl)-1,3,4-oxadiazole] | 1470 fold | 7.47 | < 4.30 | *** (***, >100%) | – | – | –
